Source: US8697652B2, “Cosmetic use of at least the natural tetrapeptide Ac-Ser-Asp-Lys-Pro or one of its analogs as a skin restructuring agent” (Centre National de la Recherche Scientifique (CNRS), priority 2004, dated 2014)
Ends that are not written are not given here.

Key:
Type in all cases: cell-based
Keratin 14 (CK14) = experiment: Immunolabelling of keratin 14 in human skin explants
Procedure: (§1) This study was conducted on thirty six human skin explants obtained from breast plastic surgery.
(§2) All the explants were maintained in a state of survival in a culture medium for eight days. AcSDKP at a concentration of 10^−5 M or 10^−8 M in physiological serum was applied to the explants by topical route every day for one week. On days 2, 4, 6 and 8, three explants from each batch (control, +AcSDKP 10^−5 M+ AcSDKP 10^−8 M) were removed and prepared for histological studies. General morphology was examined and an evaluation of the expression of basal keratin (CK14), undifferentiated keratin (CK19), collagen III, collagen IV, fibronectin and glycosaminoglycan without an acid group was performed.

Keratin 19 (CK19) = experiment: Immunolabelling of keratin 19 in human skin explants
Procedure: as §1, §2

[1] = tested on: Basal Membrane Collagen (Type IV); experiment: Immunolabelling of collagen IV in human skin explants
Procedure: as §1, §2

human skin explants = experiment: General morphology (Masson Trichrome) of human skin explants treated topically with AcSDKP
Procedure: as §1, §2
This is seen by an increased number of live cell bases.

fibronectin = experiment: Immunolabelling of fibronectin in human skin explants
Procedure: as §1, §2

[2] = tested on: Dermal Collagen (Type III); experiment: Immunolabelling of collagen III in human skin explants
Procedure: as §1, §2

Glycosaminoglycan (GAGs) = experiment: P.A.S. Alcian blue staining of GAGs without acid groups in human skin explants
Procedure: as §1, §2
This effect, clearly visible at D6 and D8, is characterised by a PAS positive increase in the number of fibroblasts in the papillary dermis, especially in the band situated along the dermo-epidermal junction and by increased levels of GAGs in these fibroblasts.

[3] = AcSDKP 10^-5 M compared with 10^-8 M

Substance: Acetyl-Ser-Asp-Lys-Pro (Ac-SDKP) [AcSDKP, natural tetrapeptide isolated from calf foetus bone marrow or obtained by peptide synthesis]
- CK14 restructuring effect (Keratin 14 (CK14); [3]): greater
- CK14 levels (immunolabelling) (Keratin 14 (CK14); basal and superbasal position, as of D4 of treatment): gradual increase in the levels of this protein
- production of CK14 in treated skin (summary) (Keratin 14 (CK14); summary statement): stimulates the production
- CK19 effect (Keratin 19 (CK19); [3]): less marked effect
- CK19 expression (immunolabelling) (Keratin 19 (CK19); AcSDKP 10^-5 M or 10^-8 M, as of D6 of treatment): overexpression of the skin's dermal attachments
- production of CK19 in treated skin (summary) (Keratin 19 (CK19); summary statement): stimulates the production
- increase in collagen IV levels [1, 3]: higher
- increase in collagen IV levels in the basal membrane along the dermo-epidermal junction ([1]; AcSDKP 10^-5 M or 10^-8 M, D6 and D8, compared with type III collagen): less pronounced than that for type III collagen
- expression of collagen IV in treated skin (summary) ([1]; summary statement): stimulatory effect
- increase in epidermal thickness (human skin explants; [3]): greater
- epidermal structure (general morphology) (human skin explants; AcSDKP 10^-5 M or 10^-8 M, topical daily, as of D6 of treatment): stimulation of the epidermal structure
- overall effect on epidermis and dermis (conclusion) (human skin explants; conclusion of explant study): restructuring of the epidermis and dermis
- fibronectin activity (fibronectin; [3]): greater activity
- fibronectin network (fibronectin; area treated with AcSDKP): denser and has thicker fibres
- fibronectin expression (immunolabelling, summary) (fibronectin; treated skin): overexpression of this protein along a dermo-epidermal junction as well as in the papillary and reticular dermis
- collagen III expression ([2]; AcSDKP 10^-5 M, D8): very clear overexpression of collagen III in the papillary and reticular dermis
- collagen III levels ([2]; AcSDKP 10^-5 M, six days of treatment): very marked increase in collagen III levels in the papillary dermis along the dermo-epidermal junction
- collagen III in the remainder of the papillary dermis and reticular dermis ([2]; AcSDKP 10^-8 M, D6): more present
- collagen III expression along the dermo-epidermal junction ([2]; AcSDKP 10^-8 M, D6, compared with 10^-5 M): less pronounced
- level of collagen III ([2]; AcSDKP 10^-8 M, D8): increases along the dermo-epidermal junction and forms a thicker collagen band
- expression of collagen III in treated skin (summary) ([2]; summary statement): stimulatory effect
- GAG activity (Glycosaminoglycan (GAGs); [3]): higher level of activity
- levels of GAGs without acid groups (Glycosaminoglycan (GAGs); AcSDKP 10^-5 M or 10^-8 M, clearly visible at D6 and D8): significant increase in the levels of these compounds
